# Columns and labels:
# Type in all cases: binding
# [1] = test system: antibodies against mycobacterial material in human serum; assay: ELISA with antigen immobilised on ELISA plates, rabbit anti-human IgG HRP as secondary antibody
# [2] = test system: antibodies against mycobacterial material in human serum; assay: ELISA with diacyl glycolipid antigen of formula (XIII) immobilised via the terminal thio group
# [3] = test system: antibodies against mycobacterial material in human serum; assay: ELISA with antigen immobilised on ELISA plates, rabbit anti-human IgM HRP as secondary antibody; conditions: for tuberculosis specific binding of antibodies to the immobilised antigen: overall conclusion from TB patient versus healthy samples; for background ELISA signal (absorbance at 450 nm) in healthy persons: serum of healthy persons, 1:20, 'lower' is relative to immobilised mycolic acid
# [4] = serum of smear positive TB patients 1-9 (+)
molecule,measurement,setting,value
CCCCCCCC(C)CCCC(C)CCCC(C)CCCC(C)CCCC(C)CCCOP(=O)(O)O[C@@H]1O[C@H](CO)[C@@H](O)[C@H](O)[C@@H]1O (stereo partly drawn) [β-mannosyl phosphomycoketide],tuberculosis specific binding of antibodies to the immobilised antigen,"[1]; overall conclusion, in particular smear positive samples",very high tuberculosis specific binding
same,background ELISA signal (absorbance at 450 nm) in healthy persons,"[1]; serum of healthy persons, 1:20, 'lower' is relative to immobilised mycolic acid",markedly lower
same,absorbance signal of samples from smear positive patients versus healthy persons,[1]; [4],significantly higher than the signal obtained in the healthy persons
CCCCCCCCCCCCCCCCCC[C@H](C)C[C@H](C)[C@@H](O)[C@H](C)C(=O)O[C@@H]1C(OC(=O)CCCCCCCCCCCCCCCS)[C@@H](O[C@H]2OC(CO)[C@@H](O)C(O)[C@H]2O)OC(CO)[C@H]1O (stereo partly shown) [formula (XIII)],background ELISA signal in healthy persons,[2]; healthy persons (n=4),markedly lower
same,tuberculosis specific binding of antibodies to the immobilised antigen,"[2]; overall conclusion, most significant in smear negative samples",very high tuberculosis specific binding
same,absorbance signal of samples from smear negative patients versus healthy persons,"[2]; smear negative patients (n=32), very low standard deviation",significantly higher than the signal of the healthy persons
same,absorbance signal of samples from smear positive patients versus healthy persons,"[2]; smear positive patients (n=9), rather high standard deviation",higher than the signal of the healthy persons
2-palmitoyl-3-hydroxyphthioceranoyl-2′-sulfate-α-α′-D-trehalose [Ac2SGL],tuberculosis specific binding of antibodies to the immobilised antigen,[3],very high tuberculosis specific binding
same,background ELISA signal (absorbance at 450 nm) in healthy persons,[3],markedly lower
same,absorbance signal of samples from smear negative patients versus healthy persons,[3]; serum of smear negative TB patients 11-18 (−),significantly higher than the signal of the healthy persons
same,absorbance signal of samples from smear positive patients versus healthy persons,[3]; [4],higher than the signal of the healthy persons
C/C(=C\C[n+]1cnc2c(ncn2[C@@H]2O[C@H](CO)C(O)[C@@H]2O)c1N)CC[C@@]1(C)[C@@H]2CCCC(C)(C)C2=CC[C@@H]1C (stereo partly shown) [1-tuberculosinyladenosine],tuberculosis specific binding of antibodies to the immobilised antigen,[3],very high tuberculosis specific binding
same,background ELISA signal (absorbance at 450 nm) in healthy persons,[3],markedly lower

# — US20190302114A1, “METHOD FOR DETECTING THE PRESENCE OF MYC[…] IN SAMPLE USING I[…] PHO[…]” (KEI INTERNATIONAL LIMITED, priority 2016, published 2019)
